Drawing on patent US12274703B2, “Compositions and methods of treatment for neurological disorders comprising a dementia” (Gliapharm SA, priority 2017, dated 2025), this text covers Emax for 59 compounds.

Structures are written as SMILES.

One test concerns primary astrocytes. The test can be described thus: High throughput screening for lactate secretion: acidification of extracellular medium (SNARF5). As to conditions: Mus musculus, Astrocyte, 1.5 h; Appendix I; primary screening, 10 uM, 90 min; relative to positive control; read-out: Score. It counts as cell-based, mouse. On the procedure: Primary cultures of cerebrocortical astrocytes were obtained from 1-2-day-old OF1 mouse pups (Charles River Laboratories). Briefly, cortices were isolated and minced in small pieces under a dissecting microscope. The cells were incubated for 30 min at 37° C. in a solution containing 20 U/ml of papain enzyme (Worthington Biochemical), L-cysteine 1 mM (Sigma), and 10 kU/ml DNase I (Worthington Biochemical) for an enzymatic dissociation. Papain activity was stopped by the addition of fetal calf serum (FCS) to the solution, and a single-cell suspension was then obtained by mechanical dissociation, which consisted in cells trituration in a DMEM (D7777, Sigma-Aldrich) medium (supplemented with 44 mm NaHCO3, and 10 ml/L antibiotic/antimycotic solution) containing 10% FCS. The cells were seeded at an average density of 6×10^4 cells/cm^2 in poly-D-lysine-coated 96, 12 or 6-well culture plates, depending on their use, and incubated at 37° C. in a humidified atmosphere containing 5% CO2/95% air. Culture medium was renewed twice per week. Cells were stimulated and harvested between DIV14 and DIV17, when confluence and cell growth were optimal.
Secretion of lactate in a high-throughput screening (HTS) fashion was measured indirectly through the acidification of extracellular medium. To this end, primary astrocytes grown in 96-well plates for 17 days were stimulated with the compounds as listed herein.
After washing the cells twice with stimulation medium (DMEM (D5030, Sigma), 3 mM NaHCO3 and 5 mM Glucose) at 37° C., cells were stimulated with the compounds at a final concentration of 10 uM (1% DMSO final) in 50 ul per well of stimulation medium supplemented with 10 uM of the extracellular pH sensor SNARF-5F %-(AND-6)-CAR (Life Technologies Corporation). Each compound was tested in two different plates for duplicates.
After 90 min stimulation, fluorescence was read at exc. (excitation) 480 nm/emm. (emission) 580 nm and at exc 480 nm/emm. 630 nm. The ratio of fluorescence between 630 nm and 580 emission values, which represents extracellular pH, was calculated.
In each plate, 8 wells were used for negative controls (DMSO) and 8 wells were used for positive controls (CCCP 2 uM in DMSO). Z prime values were calculated for each of the plates tested and values <0 were discarded.
The average and SD of compounds' values tested in duplicates were calculated, and compound was noted as HIT when the difference between compound's average and negative control's average was greater than three times the sum of compound's SD and negative controls' SD. Only scores greater than 40% were considered as lead hits for the CDC54K library; for the remaining libraries, all hits were considered. Scores are calculated as the % of activity compared to the positive control in each plate (which is 100%).
Primary screening hits were cherry picked on new plates and confirmed for SNARF5 effect, after having discarded those compounds that are fluorescent (exc. 480 nm/emm. 580 nm or 630 nm) before stimulation. Extracellular medium was next analyzed for extracellular lactate quantification for secondary screening.
Identification of lactate-enhancing drugs with high throughput screening (HTS) experiments on astrocytes primary cultures using extracellular pH dye (SNARF5F 5-(and 6)-carboxylic acid) for 90 min. The procedure is described in Material and Methods (2. Cell culture, 2.1. HTS for lactate secretion and 2.2. Extracellular lactate quantification).
The procedure was performed as follows: • Primary screening: acidification of the extracellular medium • Primary screening confirmation: acidification of the extracellular medium, removal of compounds with fluorescent activity at exc. 480 nm/emm. 580 nm or 630 nm. • Secondary screening: dosage of extracellular lactate
As for `O=C(c1noc2ccc(S(=O)(=O)Nc3cccc(F)c3)cc12)N1CCCC1` [L995-0058], the Emax at 10 µM came to 42.3%.
On the same count and under the same terms, the same measure for `Cc1ccc(CNS(=O)(=O)c2ccc3onc(C(=O)N4CCCCC4)c3c2)cc1` [L995-0386]: 18.8%; for `Cc1ccccc1NS(=O)(=O)c1ccc2onc(C(=O)N3CCCCC3)c2c1` [L995-0405]: 21.3%.
Still for that read-out and setting: the same measure for `CC(=O)N1CCc2sc(S(=O)(=O)Nc3cc(C)cc(C)c3)cc2C1` [P025-0080]: 33.1%; for `CC(=O)N1CCc2sc(S(=O)(=O)NCc3ccccc3)cc2C1` [P025-0168]: 14.5%; for `O=C(C1CC1)N1CCc2sc(S(=O)(=O)Nc3cccc(Cl)c3)cc2C1` [P025-0462]: 38.7%.
On the same count and under the same terms, in the case of `O=C(C1CCOC1)N1CCCn2nc(-c3cccc(Cl)c3)cc2C1` (stereo not shown) [P218-0884] it was 0%; in that of `O=C(c1ccco1)N1CCCn2nc(-c3ccc(C(F)(F)F)cc3)cc2C1` [T200-0370], 56.2%.
`CCOc1ccc(-c2cc3n(n2)CCCN(C(=O)c2cccnc2)C3)cc1` [T200-0707]: the Emax at 10 µM stood at 16.7%.
Same read-out and setting: the same measure for `COc1cccc(-c2cc3n(n2)CCCN(Cc2ccncc2)C3)c1` [T202-0973]: 34.1%.
On the same count and under the same terms, in the case of `O=C(C[n+]1cc(-c2ccc(Br)cc2)n2c1CCCCC2)c1ccccc1` [T0500-4648] it was 109%; in that of `O=C(C[n+]1cc(-c2ccccc2)n2c1CCC2)c1ccc(Br)cc1` [T0502-5560], 102%; in that of `OC1(c2ccccc2)C[N+](c2ccccc2)=C2SCCCN21` (stereo not shown) [T0507-8442], 26.8%.
Same read-out and setting: the same measure for `Fc1ccc(Nc2nc(N3CCOCC3)c3ccccc3n2)cc1` [T0508-5193]: 19.5%.
With `O=S(=O)(Nc1ccc(O)c(Cl)c1)c1ccc2ccccc2c1` [T0517-8939], the Emax at 10 µM came to 76.8%.
The same measure, in the same setting: the same measure for `CC(C)OCCCNc1ncnc2c1CCC2` [T636-0027]: 53.6%; for `Cc1ccc(CNc2ncnc3c2CCC3)o1` [T636-0054]: 55.3%.
Take `c1cncc(CCNc2ncnc3c2CCC3)c1` [T636-0085]: the Emax at 10 µM came to 28.4%.
Same read-out and setting: the same measure for `COc1cccc(CNc2ncnc3c2CCC3)c1` [T636-0134]: 75.1%; for `CN1CCC(OCCCNc2ncnc3c2CCC3)CC1` [T636-0181]: 22.8%.
With `c1coc(CNc2nc(-c3ccncc3)nc3c2CCC3)c1` [T636-0973], the Emax at 10 µM amounted to 0%.
Same read-out and setting: the same measure for `Cc1ccsc1C(=O)NC1CCN(c2ncnc3c2CCC3)C1` (stereo not shown) [T636-1114]: 72.5%.
The same measure, in the same setting: the same measure for `O=C(NCc1ccccc1)NC1CCN(c2ncnc3c2CCC3)C1` (stereo not shown) [T636-1210]: 48.9%; for `O=C(NCc1cccc(F)c1)NC1CCN(c2ncnc3c2CCC3)C1` (stereo not shown) [T636-1243]: 45.5%; for `O=S(=O)(NC1CCN(c2ncnc3c2CCC3)C1)c1ccccc1` (stereo not shown) [T636-1250]: 96.4%.
As to `O=C(c1cccc(F)c1)N1CCC(Nc2ncnc3c2CCC3)CC1` [T636-1601], the Emax at 10 µM came out at 0%.
As to `c1ccc(CN2CCC(Nc3ncnc4c3CCC4)CC2)nc1` [T636-1715], the Emax at 10 µM is 0%.
`Cc1ccc(CN2CCN(c3ncnc4c3CCC4)CC2)o1` [T636-1937]: the Emax at 10 µM is 74%.
Take `COc1ccc(CN2CCN(c3ncnc4c3CCC4)CC2)cc1OC` [T636-2007]: the Emax at 10 µM amounted to 102%.
The same measure, in the same setting: the same measure for `Cc1ccc(C(=O)N2CCCC(Nc3ncnc4c3CCC4)C2)cn1` (stereo not shown) [T636-2144]: 0%; for `O=C(Cc1cccc(F)c1)N1CCC(Nc2ncnc3c2CCC3)C1` (stereo not shown) [T636-2360]: 44%; for `O=C(c1ccc(Cl)s1)N1CCC(Nc2ncnc3c2CCC3)C1` (stereo not shown) [T636-2391]: 93.2%.
In the case of `Cn1nccc1C(=O)N1CCC(Nc2ncnc3c2CCC3)C1` (stereo not shown) [T636-2425], the Emax at 10 µM is 22%.
`O=S(=O)(Nc1ccc(F)c(Cl)c1)c1ccc2ccccc2c1` [T5231424]: the Emax at 10 µM was 67.3%.
The same measure, in the same setting: the same measure for `COc1ccccc1S(=O)(=O)Nc1ccc2nc(C)sc2c1` [T5246417]: 24.1%; for `FC(F)(F)c1cccc(CNc2ncnc3sccc23)c1` [T5346988]: 99.6%; for `Clc1ccc(Nc2ncnc3sccc23)cc1` [T5393195]: 36.9%.
On the same count and under the same terms, the same measure for `O=S(=O)(Nc1ccc2[nH]ncc2c1)c1ccc(Cl)cc1F` [T5436375]: 0%; for `COc1ccc(C2SCCN2S(=O)(=O)c2cccc(C)c2)cc1OC` (stereo not shown) [T5463658]: 27.2%.
As for `Cc1ccc(S(=O)(=O)N2CCSC2c2cccc([N+](=O)[O-])c2)c(C)c1` (stereo not shown) [T5463709], the Emax at 10 µM was found to be 24.4%.
For the compound `Cc1ccc(S(=O)(=O)N2CCSC2c2ccc([N+](=O)[O-])cc2)c(C)c1` (stereo not shown) [T5464782], the Emax at 10 µM is 27.7%.
On the same count and under the same terms, in the case of `Cc1nc2ccc(NS(=O)(=O)c3ccccc3F)cc2s1` [T5511047] it was 67%; in that of `Cn1nc(CC(=O)Nc2cccc(C(=O)NC3CC3)c2)c2ccccc2c1=O` [T5543110], 39.1%.
For the compound `Cc1cc(S(=O)(=O)NCc2ccncc2)c(Cl)cc1Cl` [T5581430], the Emax at 10 µM was found to be 47.2%.
The same measure, in the same setting: the same measure for `Cc1nc(-c2cccc(NS(=O)(=O)c3ccc(N4CCCC4=O)cc3)c2)cs1` [T5599698]: 85.6%; for `O=C(NC1CC1)c1cccc(NS(=O)(=O)c2ccc(N3CCCC3=O)cc2)c1` [T5618591]: 41.6%.
Still for that read-out and setting: in the case of `CC(=O)c1cccc(NC(=O)C(C)Sc2ncnc3ccsc23)c1` (stereo not shown) [T5627721] it was 72.4%; in that of `CC1c2ccsc2CCN1c1ncnc2sccc12` (stereo not shown) [T5630309], 72.2%; in that of `O=S(=O)(Nc1ccc2[nH]ncc2c1)c1ccc(C(F)(F)F)cc1` [T5653029], 36.2%.
On the same count and under the same terms, in the case of `c1csc(C(Nc2ncnc3sccc23)C2CC2)c1` (stereo not shown) [T5713637] it was 114%.
`O=C(Cc1n[nH]c(=O)c2ccccc12)Nc1cccc(Br)c1` [T5717474]: the Emax at 10 µM came out at 21.7%.
With `c1ccc(C(Nc2ncnc3sccc23)C2CC2)cc1` (stereo not shown) [T6016487], the Emax at 10 µM was determined as 126%.
Same read-out and setting: in the case of `CC(=O)N1CCCc2cc(S(=O)(=O)NC(c3ccccc3)C(C)C)ccc21` (stereo not shown) [T6067366] it was 0%.
The same measure, in the same setting: in the case of `CC(=O)N1CCCc2cc(S(=O)(=O)NCc3cccc(C(F)(F)F)c3)ccc21` [T6099519] it was 27.6%.
For `Cc1ccc(F)cc1NC(=O)Cc1nn(C)c(=O)c2ccccc12` [T6302989], the Emax at 10 µM was found to be 40.5%.
On the same count and under the same terms, in the case of `c1ccc2c(c1)CN(c1ncnc3sccc13)CCN2` [T6768300] it was 34.4%; in that of `CN(C)Cc1cccc(CNc2ncnc3sccc23)c1` [T6783542], 85.7%.

The same test, now with this note: Mus musculus, Astrocyte, 1.5 h; Prestwick hits; 10 uM, 90 min; activity relative to positive control CCCP 2 uM; read-out: Score.
For the compound `Clc1ccc(COC(Cn2ccnc2)c2ccc(Cl)cc2Cl)c(Cl)c1` (stereo not shown) [Miconazole], the Emax at 10 µM was determined as 7.35%.
Same read-out and setting: the same measure for `Cc1cc(/C=C/c2ccc3cc(N(C)C)ccc3[n+]2C)c(C)n1-c1ccccc1` [Pyrvinium pamoate]: 99.1%.

The test is the same for the next values; noted with them: Mus musculus, Astrocyte, 1.5 h; Prestwick hits; 10 uM, 90 min; relative to positive control CCCP 2 uM; read-out: HTS Score (lactate).
For `Clc1ccc(COC(Cn2ccnc2)c2ccc(Cl)cc2Cl)c(Cl)c1` (stereo not shown) [Miconazole], the Emax at 10 µM came to 7.3%.
For the compound `Cc1cc(/C=C/c2ccc3cc(N(C)C)ccc3[n+]2C)c(C)n1-c1ccccc1` [Pyrvinium pamoate], the Emax at 10 µM is 99.1%.
